Measurements as given in patent US20240165244A1 (Prelude Therapeutics Incorporated, priority 2022, published 2024).

Assays:
[1] = target: T1, SMARCA2 (Homo sapiens, UniProt P51531); test: SMARCA2 HiBiT degradation assay in HeLa cells; assay type: cell-based; conditions: 18 hours, highest concentration 10 μM
T1 construct: SMARCA2-HiBiT knock-in Hela monoclonal cell (CS302366); host or cells: HeLa monoclonal cells with heterozygous HiBiT knock-in at the endogenous SMARCA2 locus
Method in brief: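 HeLa cells carrying a heterozygous C-terminal HiBiT knock-in on SMARCA2 were seeded at 2500 cells/well. They were treated with 3-fold dilution series, top concentration 10 μM, for 18 h at 37 °C. Remaining SMARCA2-HiBiT was measured by Nano-Glo HiBiT lytic luminescence after 30-60 min at RT, followed by curve fitting.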

[2] = target: T2, SMARCA4 (Homo sapiens, UniProt P51532); test: SMARCA4 HiBiT degradation assay in HeLa cells; assay type: cell-based; conditions: 18 hours, highest concentration 10 μM
T2 construct: SMARCA4-HiBiT knock-in Hela monoclonal cell (CS3023226); host or cells: HeLa monoclonal cells with heterozygous HiBiT knock-in at the endogenous SMARCA4 locus
Method in brief: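 HeLa monoclonal cells with HiBiT knocked into SMARCA4 were seeded at 2500 cells/well, dosed with compound and incubated 18 hours at 37° C. HiBiT signal reported remaining SMARCA4 protein, and values came from curve fitting.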

T2 sequence (P51532 whole entry): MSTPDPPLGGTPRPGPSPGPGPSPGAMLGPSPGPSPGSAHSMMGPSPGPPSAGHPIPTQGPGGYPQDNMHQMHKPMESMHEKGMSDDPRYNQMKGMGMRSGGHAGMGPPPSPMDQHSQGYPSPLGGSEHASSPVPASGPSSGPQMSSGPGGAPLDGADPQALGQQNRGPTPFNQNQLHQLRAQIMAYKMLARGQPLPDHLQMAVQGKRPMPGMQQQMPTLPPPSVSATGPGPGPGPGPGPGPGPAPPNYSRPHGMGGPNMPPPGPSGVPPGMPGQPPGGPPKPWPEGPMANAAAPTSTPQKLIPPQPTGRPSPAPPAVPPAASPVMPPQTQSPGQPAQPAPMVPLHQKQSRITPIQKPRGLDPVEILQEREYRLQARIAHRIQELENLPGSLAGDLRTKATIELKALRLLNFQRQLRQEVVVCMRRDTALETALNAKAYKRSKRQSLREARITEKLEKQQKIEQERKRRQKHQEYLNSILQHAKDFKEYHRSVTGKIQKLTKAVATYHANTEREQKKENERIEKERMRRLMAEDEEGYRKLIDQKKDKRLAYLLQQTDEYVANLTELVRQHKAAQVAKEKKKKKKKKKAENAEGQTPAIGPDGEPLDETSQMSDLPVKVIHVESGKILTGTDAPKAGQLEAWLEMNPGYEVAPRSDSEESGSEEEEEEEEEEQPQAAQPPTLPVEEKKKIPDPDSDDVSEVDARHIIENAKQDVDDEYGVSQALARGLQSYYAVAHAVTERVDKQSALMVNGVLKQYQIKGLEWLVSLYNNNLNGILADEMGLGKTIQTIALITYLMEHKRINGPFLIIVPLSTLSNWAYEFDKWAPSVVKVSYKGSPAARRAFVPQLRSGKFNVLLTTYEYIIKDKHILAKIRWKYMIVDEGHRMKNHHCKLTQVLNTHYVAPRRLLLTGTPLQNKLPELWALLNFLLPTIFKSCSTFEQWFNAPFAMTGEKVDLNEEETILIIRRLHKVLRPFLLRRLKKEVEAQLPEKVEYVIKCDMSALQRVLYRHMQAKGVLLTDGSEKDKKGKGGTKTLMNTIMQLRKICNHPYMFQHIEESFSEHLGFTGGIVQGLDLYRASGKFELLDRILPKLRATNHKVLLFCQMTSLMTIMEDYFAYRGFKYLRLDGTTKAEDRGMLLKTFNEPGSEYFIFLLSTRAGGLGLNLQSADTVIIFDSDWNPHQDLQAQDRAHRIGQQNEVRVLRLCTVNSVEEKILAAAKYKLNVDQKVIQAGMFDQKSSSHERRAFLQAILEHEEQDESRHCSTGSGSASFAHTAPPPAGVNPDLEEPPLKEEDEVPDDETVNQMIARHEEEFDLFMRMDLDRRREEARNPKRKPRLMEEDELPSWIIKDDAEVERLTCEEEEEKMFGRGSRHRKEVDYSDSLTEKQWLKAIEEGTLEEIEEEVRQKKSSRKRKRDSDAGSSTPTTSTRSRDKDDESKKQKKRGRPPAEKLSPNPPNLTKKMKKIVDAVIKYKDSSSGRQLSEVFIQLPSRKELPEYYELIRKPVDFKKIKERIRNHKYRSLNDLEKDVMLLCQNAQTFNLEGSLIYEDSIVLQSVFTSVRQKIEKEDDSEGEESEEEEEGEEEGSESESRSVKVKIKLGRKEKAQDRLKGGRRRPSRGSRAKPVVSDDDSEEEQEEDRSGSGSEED
T1 sequence (P51531 whole entry): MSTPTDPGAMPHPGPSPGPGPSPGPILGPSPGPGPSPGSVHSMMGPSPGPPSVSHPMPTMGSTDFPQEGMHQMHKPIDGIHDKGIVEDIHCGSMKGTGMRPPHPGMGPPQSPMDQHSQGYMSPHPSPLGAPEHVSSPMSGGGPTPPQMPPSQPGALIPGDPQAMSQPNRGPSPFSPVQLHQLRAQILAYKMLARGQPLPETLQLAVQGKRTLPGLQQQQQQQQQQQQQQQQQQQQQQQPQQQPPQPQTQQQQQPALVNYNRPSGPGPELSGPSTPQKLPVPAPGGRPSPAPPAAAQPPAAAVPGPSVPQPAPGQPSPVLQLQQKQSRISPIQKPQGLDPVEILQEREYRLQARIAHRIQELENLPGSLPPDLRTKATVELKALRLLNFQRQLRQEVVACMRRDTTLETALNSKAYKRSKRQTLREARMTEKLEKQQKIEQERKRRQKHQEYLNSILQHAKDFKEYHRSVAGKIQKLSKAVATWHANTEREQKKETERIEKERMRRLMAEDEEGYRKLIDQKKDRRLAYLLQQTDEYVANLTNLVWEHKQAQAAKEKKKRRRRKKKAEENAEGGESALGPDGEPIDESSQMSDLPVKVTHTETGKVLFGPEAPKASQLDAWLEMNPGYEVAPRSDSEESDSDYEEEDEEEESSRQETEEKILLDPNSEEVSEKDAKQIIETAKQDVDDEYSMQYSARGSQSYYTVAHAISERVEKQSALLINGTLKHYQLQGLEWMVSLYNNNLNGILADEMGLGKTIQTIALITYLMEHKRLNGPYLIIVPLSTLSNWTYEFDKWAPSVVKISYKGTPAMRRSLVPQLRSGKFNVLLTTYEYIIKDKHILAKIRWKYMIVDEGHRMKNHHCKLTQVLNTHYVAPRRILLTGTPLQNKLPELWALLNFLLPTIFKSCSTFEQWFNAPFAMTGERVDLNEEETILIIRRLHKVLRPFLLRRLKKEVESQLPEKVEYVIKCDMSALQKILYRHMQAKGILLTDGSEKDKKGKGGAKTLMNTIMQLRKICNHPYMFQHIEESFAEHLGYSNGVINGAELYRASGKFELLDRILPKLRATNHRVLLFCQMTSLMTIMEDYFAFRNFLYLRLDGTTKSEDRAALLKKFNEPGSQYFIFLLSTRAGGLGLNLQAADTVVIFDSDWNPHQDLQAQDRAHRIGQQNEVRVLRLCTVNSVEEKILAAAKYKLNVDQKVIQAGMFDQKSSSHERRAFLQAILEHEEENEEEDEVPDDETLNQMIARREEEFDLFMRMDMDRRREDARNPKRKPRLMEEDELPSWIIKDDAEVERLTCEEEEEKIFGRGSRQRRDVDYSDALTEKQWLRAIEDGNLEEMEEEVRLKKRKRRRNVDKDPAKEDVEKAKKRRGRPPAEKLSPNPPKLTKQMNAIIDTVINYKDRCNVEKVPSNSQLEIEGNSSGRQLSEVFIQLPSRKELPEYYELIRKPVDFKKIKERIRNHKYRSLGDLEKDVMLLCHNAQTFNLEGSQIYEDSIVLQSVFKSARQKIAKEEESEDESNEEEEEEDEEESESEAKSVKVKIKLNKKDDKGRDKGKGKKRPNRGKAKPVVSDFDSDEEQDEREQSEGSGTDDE

`Cc1nc(O[C@H]2CN3c4cc(-c5cccc(F)c5O)nnc4NC[C@@]3(C)C2)nc(C)c1CN1CCN(c2ccc3c(c2)C(=O)N([C@H]2CCC(=O)NC2=O)C3)CC1` [Example 75, (S)-3-(6-(4-((2-(((6aR,8R)-2-(3-fluoro-2-hydroxyphenyl)-6a-methyl-5,6,6a,7,8,9-hexahydropyrrolo[1′,2′:4,5]pyrazino[2,3-c]pyridazin-8-yl)oxy)-4,6-dimethylpyrimidin-5-yl)methyl)piperazin-1-yl)-1-oxoisoindolin-2-yl)piperidine-2,6-dione] was tested, and the DC50 [1] was less than 100 nM, the Dmax [1] was greater than 75% and the DC50 [2] was 100 to 1000 nM. The Dmax [2] was less than 50%.
`Cc1cc(O[C@@H]2C[C@@H]3CNc4nnc(-c5cc(F)cc(F)c5O)cc4N3C2)ccc1CN1CCN(c2ccc3c(c2)C(=O)N(C2CCC(=O)NC2=O)C3)CC1` (stereo partly drawn) [Example 7, 3-(6-(4-(4-(((6aR,8R)-2-(3,5-difluoro-2-hydroxyphenyl)-5,6,6a,7,8,9-hexahydropyrrolo[1′,2′:4,5]pyrazino[2,3-c]pyridazin-8-yl)oxy)-2-methylbenzyl)piperazin-1-yl)-1-oxoisoindolin-2-yl)piperidine-2,6-dione] showed a DC50 [1] of less than 100 nM, a Dmax [1] greater than 75% and a DC50 [2] of less than 100 nM. The Dmax [2] was 50 to 75%.
`O=C1CCC(N2Cc3ccc(N4CCN(Cc5cnc(S[C@@H]6C[C@@H]7CNc8nnc(-c9cc(F)cc(F)c9O)cc8N7C6)nc5)CC4)cc3C2=O)C(=O)N1` (stereo partly drawn) [Example 26, 3-(6-(4-((2-(((6aR,8R)-2-(3,5-difluoro-2-hydroxyphenyl)-5,6,6a,7,8,9-hexa-hydropyrrolo[1′,2′:4,5]pyrazino[2,3-c]pyridazin-8-yl)thio)pyrimidin-5-yl)methyl)piperazin-1-yl)-1-oxoisoindolin-2-yl)piperidine-2,6-dione] showed a DC50 [1] of less than 100 nM, a Dmax [1] greater than 75% and a DC50 [2] of less than 100 nM. The Dmax [2] was greater than 75%.
With `CCc1nc(CN2CCN(c3ccc4c(c3)C(=O)N([C@H]3CCC(=O)NC3=O)C4)CC2)cnc1O[C@H]1CN2c3cc(-c4cccc(F)c4O)nnc3NC[C@@]2(CF)C1` [Example 67, (S)-3-(6-(4-((6-ethyl-5-(((6aR,8R)-2-(3-fluoro-2-hydroxyphenyl)-6a-(fluoromethyl)-5,6,6a,7,8,9-hexahydropyrrolo[1′,2′:4,5]pyrazino[2,3-c]pyridazin-8-yl)oxy)pyrazin-2-yl)methyl)piperazin-1-yl)-1-oxoisoindolin-2-yl)piperidine-2,6-dione] the DC50 [1] was less than 100 nM, the Dmax [1] was greater than 75% and the DC50 [2] was greater than 1000 nM. For the same compound, the Dmax [2] was less than 50%.
Work on `Cc1cc(O[C@@H]2C[C@@H]3CNc4nnc(-c5cccc(F)c5O)cc4N3C2)ccc1CN1CCN(c2ccc3c(c2)C(=O)N(C2CCC(=O)NC2=O)C3)CC1` (stereo partly drawn) [Example 11, 3-(6-(4-(4-(((6aR,8R)-2-(3-fluoro-2-hydroxyphenyl)-5,6,6a,7,8,9-hexahydropyrrolo[1′,2′:4,5]pyrazino[2,3-c]pyridazin-8-yl)oxy)-2-methylbenzyl)piperazin-1-yl)-1-oxoisoindolin-2-yl)piperidine-2,6-dione] yielded a DC50 [1] of less than 100 nM, a Dmax [1] greater than 75% and a DC50 [2] of less than 100 nM. The Dmax [2] was 50 to 75%.
`Cc1nc(CN2CCC(c3ccc4c(c3)C(=O)N([C@H]3CCC(=O)NC3=O)C4)CC2)cnc1O[C@H]1CN2c3cc(-c4cccc(F)c4O)nnc3NC[C@]2(C(F)F)C1` [Example 91, (S)-3-(6-(1-((5-(((6aS,8R)-6a-(difluoromethyl)-2-(3-fluoro-2-hydroxyphenyl)-5,6,6a,7,8,9-hexahydropyrrolo[1′,2′:4,5]pyrazino[2,3-c]pyridazin-8-yl)oxy)-6-methylpyrazin-2-yl)methyl)piperidin-4-yl)-1-oxoisoindolin-2-yl)piperidine-2,6-dione] showed a DC50 [1] of less than 100 nM, a Dmax [1] greater than 75% and a DC50 [2] of less than 100 nM. For the same compound, the Dmax [2] was 50 to 75%.
`O=C1CCC(N2Cc3ccc(N4CCN(Cc5ccc(O[C@@H]6C[C@@H]7CNc8nnc(-c9cc(F)cc(F)c9O)cc8N7C6)c(Cl)c5)CC4)cc3C2=O)C(=O)N1` (stereo partly drawn) [Example 6, 3-(6-(4-(3-chloro-4-(((6aR,8R)-2-(3,5-difluoro-2-hydroxyphenyl)-5,6,6a,7,8,9-hexahydropyrrolo[1′,2′:4,5]pyrazino[2,3-c]pyridazin-8-yl)oxy)benzyl)piperazin-1-yl)-1-oxoisoindolin-2-yl)piperidine-2,6-dione] gave a DC50 [1] of less than 100 nM, a Dmax [1] greater than 75% and a DC50 [2] of less than 100 nM. The Dmax [2] was greater than 75%.
`COc1cc(O[C@@H]2C[C@@H]3CNc4nnc(-c5cccc(Cl)c5O)cc4N3C2)ccc1CN1CCN(c2ccc3c(c2)C(=O)N(C2CCC(=O)NC2=O)C3)CC1` (stereo partly drawn) [Example 21, 3-(6-(4-(4-(((6aR,8R)-2-(3-chloro-2-hydroxyphenyl)-5,6,6a,7,8,9-hexahydropyrrolo[1′,2′:4,5]pyrazino[2,3-c]pyridazin-8-yl)oxy)-2-methoxybenzyl)piperazin-1-yl)-1-oxoisoindolin-2-yl)piperidine-2,6-dione] showed a DC50 [1] of less than 100 nM, a Dmax [1] greater than 75% and a DC50 [2] of less than 100 nM. The Dmax [2] was greater than 75%.
Work on `CC(C)c1cc(O[C@@H]2C[C@@H]3CNc4nnc(-c5cc(F)cc(F)c5O)cc4N3C2)ccc1CN1CCN(c2ccc3c(c2)C(=O)N(C2CCC(=O)NC2=O)C3)CC1` (stereo partly drawn) [Example 16, 3-(6-(4-(4-(((6aR,8R)-2-(3,5-difluoro-2-hydroxyphenyl)-5,6,6a,7,8,9-hexahydropyrrolo[1′,2′:4,5]pyrazino[2,3-c]pyridazin-8-yl)oxy)-2-isopropylbenzyl)piperazin-1-yl)-1-oxoisoindolin-2-yl)piperidine-2,6-dione] yielded a DC50 [1] of less than 100 nM, a Dmax [1] of 50 to 75% and a DC50 [2] of less than 100 nM. For the same compound, the Dmax [2] was 50 to 75%.
Compound `CC[C@]12CNc3nnc(-c4cccc(C)c4O)cc3N1C[C@H](Oc1cnc(CN3CCC(c4ccc5c(c4)C(=O)N([C@H]4CCC(=O)NC4=O)C5)CC3)c(C)c1)C2` [Example 97, (S)-3-(6-(1-((5-(((6aS,8R)-6a-ethyl-2-(2-hydroxy-3-methylphenyl)-5,6,6a,7,8,9-hexahydropyrrolo[1′,2′:4,5]pyrazino[2,3-c]pyridazin-8-yl)oxy)-3-methylpyridin-2-yl)methyl)piperidin-4-yl)-1-oxoisoindolin-2-yl)piperidine-2,6-dione] has a DC50 [1] of less than 100 nM, a Dmax [1] greater than 75% and a DC50 [2] of less than 100 nM. It also gave a Dmax [2] of 50 to 75%.
`O=C1CCC(N2Cc3ccc(N4CCN(Cc5ccc(O[C@@H]6C[C@@H]7CNc8nnc(-c9cc(F)cc(F)c9O)cc8N7C6)nc5)CC4)cc3C2=O)C(=O)N1` (stereo partly drawn) [Example 33, 3-(6-(4-((6-(((6aR,8R)-2-(3,5-difluoro-2-hydroxyphenyl)-5,6,6a,7,8,9-hexahydropyrrolo[1′,2′:4,5]pyrazino[2,3-c]pyridazin-8-yl)oxy)pyridin-3-yl)methyl)piperazin-1-yl)-1-oxoisoindolin-2-yl)piperidine-2,6-dione] gave a DC50 [1] of less than 100 nM, a Dmax [1] greater than 75% and a DC50 [2] of less than 100 nM. It also gave a Dmax [2] greater than 75%.
Work on `Cc1c(CN2CCN(c3ccc4c(c3)C(=O)N(C3CCC(=O)NC3=O)C4)CC2)ccc(O[C@@H]2C[C@@H]3CNc4nnc(-c5cc(F)cc(F)c5O)cc4N3C2)c1C` (stereo partly drawn) [Example 18, 3-(6-(4-(4-(((6aR,8R)-2-(3,5-difluoro-2-hydroxyphenyl)-5,6,6a,7,8,9-hexahydropyrrolo[1′,2′:4,5]pyrazino[2,3-c]pyridazin-8-yl)oxy)-2,3-dimethylbenzyl)piperazin-1-yl)-1-oxoisoindolin-2-yl)piperidine-2,6-dione] yielded a DC50 [1] of less than 100 nM, a Dmax [1] greater than 75% and a DC50 [2] of less than 100 nM. The Dmax [2] was greater than 75%.
Work on `CCc1nc(CN2CCC(c3ccc4c(c3)C(=O)N([C@H]3CCC(=O)NC3=O)C4)CC2)cnc1O[C@H]1CN2c3cc(-c4cccc(F)c4O)nnc3NC[C@@]2(CF)C1` [Example 68, (S)-3-(6-(1-((6-ethyl-5-(((6aR,8R)-2-(3-fluoro-2-hydroxyphenyl)-6a-(fluoromethyl)-5,6,6a,7,8,9-hexahydropyrrolo[1′,2′:4,5]pyrazino[2,3-c]pyridazin-8-yl)oxy)pyrazin-2-yl)methyl)piperidin-4-yl)-1-oxoisoindolin-2-yl)piperidine-2,6-dione] yielded a DC50 [1] of less than 100 nM, a Dmax [1] greater than 75% and a DC50 [2] greater than 1000 nM. For the same compound, the Dmax [2] was less than 50%.
In the case of `Cc1c(O[C@H]2CN3c4cc(-c5cccc(F)c5O)nnc4NC[C@@]3(C(F)F)C2)cnc(CN2CCN(c3ccc4c(c3)C(=O)N([C@H]3CCC(=O)NC3=O)C4)CC2)c1F` [Example 45, (S)-3-(6-(4-((5-(((6aR,8R)-6a-(difluoromethyl)-2-(3-fluoro-2-hydroxyphenyl)-5,6,6a,7,8,9-hexahydropyrrolo[1′,2′:4,5]pyrazino[2,3-c]pyridazin-8-yl)oxy)-3-fluoro-4-methylpyridin-2-yl)methyl)piperazin-t-yl)-1-oxoisoindolin-2-yl)piperidine-2,6-dione], the DC50 [1] is reported as less than 100 nM, the Dmax [1] is reported as 50 to 75% and the DC50 [2] is reported as greater than 1000 nM. For the same compound, the Dmax [2] was less than 50%.
In the case of `Cc1c(CN2CCN(c3ccc4c(c3)C(=O)N([C@H]3CCC(=O)NC3=O)C4)CC2)cnc(O[C@H]2CN3c4cc(-c5cccc(F)c5O)nnc4NC[C@@]3(CF)C2)c1F` [Example 71, (S)-3-(6-(4-((5-fluoro-6-(((6aR,8R)-2-(3-fluoro-2-hydroxyphenyl)-6a-(fluoromethyl)-5,6,6a,7,8,9-hexahydropyrrolo[1′,2′:4,5]pyrazino[2,3-c]pyridazin-8-yl)oxy)-4-methylpyridin-3-yl)methyl)piperazin-1-yl)-1-oxoisoindolin-2-yl)piperidine-2,6-dione], the DC50 [1] is reported as less than 100 nM, the Dmax [1] is reported as greater than 75% and the DC50 [2] is reported as greater than 1000 nM. For the same compound, the Dmax [2] was less than 50%.
